Reference: US20250044299A1, “PROTEIN STABILITY ASSAY” (Medicines Discovery Catapult Limited, priority 2021, published 2025)

What was measured:
[1] = biological target: T1, p38α (Homo sapiens, UniProt Q16539); test: Chemical protein stability assay, single-well per test compound format, AlphaLISA, HEK293T cell lysate (Example 9); format: binding; settings: 10 μM compound, 384-well single wells
T1 construct: endogenous in cells; host or cells: HEK293T
Method: For signal detection an antibody detection mix was made up no more than 20 minutes prior to use.

[2] = biological target: T2, p38α MAPK (Homo sapiens, UniProt Q16539); test: Protein stability assay, AlphaLISA endpoint, HEK293T cell lysate, AEA titration (Example 1); format: binding; parameters: endogenous in cells; host or cells: HEK293T; settings: compound at 10 or 100 μM, vs DMSO only
Method: Lysate from HEK293T cells grown in continuous culture at 5% CO2/37° C. in full growth media (RPMI (Gibco 11835-063), 10% FCS (Gibco F7524) 1% Glutamax (Gibco 35050-061)) was produced by growing cells in flasks to 85% confluence, removing from the surface using 3 ml Tryple Select (Gibco 12563011), centrifuging (1000 rpm for 4 minutes) to pellet, washing cell pellet two times in DPBS (Gibco 14190-094), resuspending in 1 ml of DPBS (Gibco 14190-094) containing 1× HALT Protease and Phosphatase inhibitor cocktail (Thermo Scientific 78440) per flask and lysing by three cycles of a liquid nitrogen freeze followed by thawing at room temperature. […]
To run the protein stability assay, an aliquot of HEK293T cell lysate at 4 μg/μl was thawed at room temperature and 2 μl added to each well of a 384-well White ProxiPlate (Perkin Elmer 6008280) containing […], 100 μM AMG-548 (Bio-Techne 3920/10) or an equivalent volume of DMSO dosed using the Labcyte ECHO. […] While incubating, fresh 100% AEA (Acetone (11443733), Ethanol (10437341) and Acetic Acid (10365020), all from Fisher Scientific in a ratio of 50:50:0.1) denaturant was made in a glass bottle ready for use. An aliquot of 100% AEA was diluted to 50% in DPBS (Gibco 14190-094) ready to produce titration curves of denaturant. […]
Target sequence in this assay (Q16539 whole entry): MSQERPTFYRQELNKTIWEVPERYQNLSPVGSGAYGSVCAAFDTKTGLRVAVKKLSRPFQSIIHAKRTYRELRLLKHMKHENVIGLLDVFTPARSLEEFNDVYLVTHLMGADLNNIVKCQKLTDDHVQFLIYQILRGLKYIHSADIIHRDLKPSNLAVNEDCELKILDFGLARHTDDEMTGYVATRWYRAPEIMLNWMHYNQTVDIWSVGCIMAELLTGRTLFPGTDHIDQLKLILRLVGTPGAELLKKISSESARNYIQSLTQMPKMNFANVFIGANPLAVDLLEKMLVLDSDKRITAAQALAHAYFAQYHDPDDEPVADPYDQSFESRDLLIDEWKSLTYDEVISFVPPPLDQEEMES

[3] = biological target: T2, p38α MAPK; test: Whole cell protein stability assay, AlphaLISA endpoint, intact HEK293T cells, EA titration (Example 4); format: cell-based; parameters: endogenous in cells; host or cells: HEK293T; settings: 10 μM compound as printed, vs DMSO only
Method: HEK293T cells were grown in media (RPMI (Gibco 11835-063), 10% FCS (Gibco F7524) 1% Glutamax (Gibco 35050-061)) to approximately 85% confluence in a flask before harvesting from the surface using 3 ml Tryple Select (Gibco 12563011), washing cell pellet once in DPBS (Gibco 14190-094) and resuspending in media. Cells were counted and diluted in media to a density of 1×10^7 cell/ml.
To run the protein stability assay 5 μl of cells at a density of 1×10^7 cell/ml was added to each well of a 384-well White ProxiPlate ([…]) or an equivalent volume of DMSO dosed using the Labcyte ECHO. The contents of the plate were settled by a short pulse spin, sealed with a TopSeal-A Plus plate seal (Perkin Elmer 6050185) and the compound/lysate mixes incubated at ambient temperature for 30 minutes to 1 hour to allow potential target engagement by compound to occur. While incubating, fresh 100% EA (Ethanol (10437341) and Acetic Acid (10365020), all from Fisher Scientific in a ratio of 100:0.1) denaturant was made in a glass bottle ready for use. 100% EA was used to produce a titration curve of denaturant. […]
The dilution series to be added was made up as a 2× stock so that when 5 μl of denaturant was added to 5 μl lysate the final volume was 10 μl. […] After incubation the plate was read on a fluorescence detecting plate reader (Excitation 680 nm, Emission 615 nm) to determine well signals.
Target sequence in this assay (Q16539 whole entry): as above

[4] = biological target: T2, p38α MAPK; test: Protein stability assay, HeLa p38α HiBiT cell lysate, HiBiT endpoint compared with AlphaLISA endpoint (Example 7); format: binding; parameters: lysate of HeLa p38α MAPK-linked HiBiT® endogenously tagged cells; endogenous in cells; host or cells: HeLa p38α HiBiT (genome-edited, endogenously tagged)
Target sequence in this assay (Q16539 2-360): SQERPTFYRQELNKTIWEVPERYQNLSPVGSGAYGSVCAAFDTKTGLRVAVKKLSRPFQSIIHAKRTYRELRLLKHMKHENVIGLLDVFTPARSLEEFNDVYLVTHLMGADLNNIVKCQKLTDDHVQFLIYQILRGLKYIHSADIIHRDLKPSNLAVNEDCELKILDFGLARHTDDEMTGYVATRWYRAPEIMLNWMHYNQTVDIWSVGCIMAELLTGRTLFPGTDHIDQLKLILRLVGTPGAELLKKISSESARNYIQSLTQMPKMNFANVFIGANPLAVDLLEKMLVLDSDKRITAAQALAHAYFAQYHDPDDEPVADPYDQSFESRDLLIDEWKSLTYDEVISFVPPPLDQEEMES
Method: Hela cells expressing the p38α target protein as a C-terminal fusion with a small peptide that includes the Promega HiBit® amino acid sequence were used as the starting material for lysate generation.
A solution containing 1:100 LgBiT® Protein and 1:100 Nano-Glo HiBiT® Lytic Substrate in PBS was created in a suitable volume. […] After incubation the plate was read on a luminescence detecting plate reader (3600 gain, 470-480 emission) to determine well signals.

T1 sequence (Q16539 whole entry): as the sequence (Q16539 whole entry) above

For `Cn1c(NC[C@@H](N)Cc2ccccc2)nc(-c2ccncc2)c(-c2ccc3ccccc3c2)c1=O` [AMG-548], the “single-well signal vs minimum signal (22% EA, DMSO vehicle)” value [1] was “higher Maximum effect signal”, the “stabilisation of p38α MAPK protein (shift in protein denaturation curves)” value [2] was “stabilisation of p38α MAPK protein in a dose dependent manner” and the “stabilisation of p38α MAPK protein (shift in protein denaturation curves)” value [3] was “stabilisation of p38α MAPK protein compared to DMSO only treatment”. The “stabilisation of p38α MAPK target protein (shift of denaturant titration curves)” value ([4]; 100 μM compound, AEA and EA titration, HiBiT or AlphaLISA endpoints, vs DMSO only) was “clear shift between the titration curves” and the “effect of compound on protein unfolding, concentration response curves” value ([4]; HiBiT endpoint, fixed dose of denaturant) was “clear dose dependent effect”.
